Source: patent US12685741B2, “N-acetylneuraminic acid compositions and methods of use” (LifeScience AS, priority 2017, dated 2026)

Legend:
[1] = cited from earlier work
herpes = test: Oral NANA in a subject with chronic herpes outbreaks; format: in vivo, human; conditions: daily dose of 3 grams, outbreaks approximately every other week for 10 years before
Protocol: A daily dose of 3 grams NANA was administered to a subject suffering from chronic herpes outbreaks which had occurred approximately every other week for 10 years.

[2] = cited from earlier work; remark: listed apart in the source
[3] = rat, in vivo, cited from earlier work

Q: Which results are given for CC(=O)N[C@H]1[C@H]([C@H](O)[C@H](O)CO)OC(O)(C(=O)O)C[C@@H]1O (stereo partly drawn) [NANA, N-acetylneuraminic acid]?
A: solubility in water [1]: Easily soluble in water; herpes outbreaks (herpes): has not had a herpes outbreak for two months; absorption after ingestion ([2]; in vivo): rapidly absorbed; excretion ([2]; via urine): quickly excreted; toxic effects ([3]; po): No toxic effects have been detected; NOAEL [3]: 974 mg/kg body weight/day
